The values below come from PMC8891364, “Synthesis, and docking studies of novel heterocycles incorporating the indazolylthiazole moiety as antimicrobial and anticancer agents” (Scientific Reports, 2022).

Values after ≈ are worked out from the molar mass of the structure shown. Values joined by “and” are separate entries in the source; they are usually repeats but may differ in a detail not shown here. Equal values may be shown once.

One data set has as its system Streptococcus mutans. In words: Microbial-biofilm inhibition, tissue-culture plate technique (TCP). In kind it is cell-based. The settings on record: 25 µg/mL, 24 h. The method, then:
(§1) The activity of the newly synthesized compounds against microbial biofilm formation was estimated through the tissue-culture plate technique (TCP) as follows: the three above-mentioned pathogens, Streptococcus mutans, Pseudomonas aeruginosa, and Candida albicans were cultivated overnight in LB broth at 37 °C. Afterward, 200 µL of each diluted organism (10^6 CFU/mL) was inoculated separately (in triplicate) into 96-well tissue culture plates and incubated overnight at 37 °C. The free planktonic cells were removed, after the incubation period, by flipping the plate and washing each well three times with phosphate-buffered-saline (PBS), pH 7.1. To each well, 175 µL of fresh LB broth was added along with 25 µL of the tested compound (25 µg/mL final concentrations). The plates were reincubated at 37 °C for another 24 h, washed with PBS buffer pH 7.1 three times, and dried for 5 min at 50 °C. The formed biofilm was stained with crystal violet solution (0.1% w/v) for 5 min. The excess stain was decanted, and the stained biofilm was solubilized with 200 µL of glacial acetic acid (30% v/v), where the developed blue color was measured at 590 nm. The results are expressed as relative inhibition (%) compared to untreated groups (control). Controls were prepared by culturing the three pathogens on LB medium without any tested compounds.

For a further data set, the system named is Pseudomonas aeruginosa. The data set is described as above. It counts as cell-based. The settings on record: 25 µg/mL, 24 h. The procedure:
as §1

A further data set concerns HepG-2 cells. As to the kind of experiment: MTT antitumor assay, hepatoma cells. It counts as cell-based, human. The procedure: (§2) The human melanocytes (HFB-4) cells, hepatoma (HepG-2) cells, and colon carcinoma (Caco-2) cells were obtained from American Type Culture Collection (ATCC, USA). The cytotoxicity of the newly synthesized compounds (at various concentrations) was determined using the 3-[4, 5-dimethylthiazol]-2, 5-diphenyltetrazolium bromide method (MTT assay)[59] against HFB-4 cells (normal human melanocytes), HepG-2 cells (hepatoma), and Caco-2 cells (colon carcinoma). Normal and cancer cells (1.0 × 10^4) were cultured in sterile 96-well microplates, and incubated for 24 h in DMEM (Lonza, USA) supplemented with 10% fetal bovine serum (Gibco, USA) for HFB-4 and Caco-2 cells or in an RPMI-1640 medium (Lonza, USA) supplemented with 10% FBS for HepG-2 cells. After 24 h of incubation, different doses of the tested synthesized compounds ([…]) were added in triplicate to all cells and incubated for another 48 h in 5% CO2. After washing the cells 3 times with fresh media, to remove dead cells and debris, a solution of MTT (Sigma -Aldrich, 0.5 mg/mL) was added to each well and further incubated for 2–5 h at 37 °C. Afterward, the MTT solution was decanted and 200 µL of DMSO was added. The optical density was measured at 570 nm using a microplate reader (BMG LabTech, Germany), where the cells’ relative viability (%) was estimated using the following equation: viability of cells (%) = [A1 − A0/AU − A0] × 100, where A1 is the absorbance of the test compound, A0 is the absorbance of the blank, and AU is the absorbance of untreated cells (control).
(§3) The antitumor activity of the synthesized compound was determined by calculating the IC50 value (half maximal inhibitory concentration) using Graph Pad Prism 6.0 software. The value of IC50 indicates the derivative concentration that causes 50% cell death, whereas the value of the selectivity index (SI), indicating the ratio of the IC50 value of normal cells versus the IC50 value of tumor cells, was also included as reported by[60],[61].
Background: Tetrazolium dyes change colour on reduction, which living cells bring about.

In data set [1] the test system is Caco-2 cells. In words: MTT antitumor assay, colon carcinoma cells. In kind it is cell-based. The method, then: as §2, §3
The subject of data set [2] is Candida albicans ATCC 10231. In words: Antimicrobial microtiter-plate MIC assay. It counts as cell-based. The settings on record: Candida albicans, ATCC10231; 24 h, 37 °C. The method, then: (§4) The antimicrobial activity of the newly synthesized compounds (2–9) was evaluated against three model pathogenic microorganisms as follows: Streptococcus mutans ATCC 25175 (Gram-positive bacterium); Pseudomonas aeruginosa ATCC 27853 (Gram-negative bacterium); and Candida albicans ATCC 10231 (fungi-like unicellular organism). After cultivating the three tested pathogens overnight in LB broth, 100 µL of each tested organism (10^6 CFU/mL) was added separately to 100 µL of the serially diluted test compounds (5–80 µg) in a 96-well tissue culture plate and incubated at 37 °C for 24 h. Eventually, microbial growth was measured at 600 nm, and the results are presented in the form of MIC (Table 4). Two antibacterial reference drugs, ampicillin and ciprofloxacin, and one antifungal drug, clotrimazole, were incorporated into the experiments.

Data set [3] concerns Pseudomonas aeruginosa ATCC 27853. In words: Antimicrobial microtiter-plate MIC assay. In kind it is cell-based. As to conditions: Pseudomonas aeruginosa, ATCC27853; 24 h, 37 °C. The method, then:
as §4

Data set [4] concerns Streptococcus mutans ATCC 25175. In words: Antimicrobial microtiter-plate MIC assay. As to conditions: Streptococcus mutans, ATCC25175, 24 h, read-out: MIC Streptococcus mutant. In kind it is cell-based. The procedure:
as §4

For another data set, the system named is HFB-4 cells. As to the kind of experiment: MTT cytotoxicity assay, normal human melanocytes. In kind it is cell-based. The settings on record: Melanocyte, 48 h. The procedure:
as §2, §3

Data set [5] has as its system Caco-2 cells. As to the kind of experiment: Cell cycle arrest analysis by flow cytometry. It counts as cell-based, human. The settings on record: 48 h, IC50 concentrations, vs untreated control. The method, then: The cell cycle arrest of treated Caco-2 cells was evaluated through flow cytometry (Partec, Germany) in comparison with untreated cells and treated cells with 5-FU as a positive control[60],[62]. […] After washing the cells three times, the cells were fixed by adding 1 mL of 70% cold ethanol dropwise with a gentle vortex. Caco-2 cells were washed three times again with cold PBS and incubated in 1 mL of PBS containing 5 μg/mL RNase A (Sigma-Aldrich) for 1 h at 37 °C. Then 10 μL of PI (Sigma-Aldrich) was added to cells at a final concentration of 1 mg/mL in deionized water and left at 4 °C until analysis in the dark. The cell cycle of Caco-2 cells before and after treatment was analyzed by FACS using Cell Quist and Mod Fit software by reading at 488 nm.
On the technique in general: A flow cytometer gives signals particle by particle.

The test system of a further data set is VEGF gene. In words: qRT-PCR gene expression in HepG-2 and Caco-2 cells. In kind it is cell-based, human. The settings on record: IC50 concentrations, 2 days, compared to 5-FU and untreated cells. The method, then: (§5) The effects of the potent antitumor derivatives (4, 6, and 8) on the expression level of some tumor regulating genes were elucidated through quantitative real-time PCR (qRT- PCR) and compared to 5-fluorouracil (5-FU) as a reference antitumor drug. Five genes were assessed, including the tumor oncogene (Bcl-2), tumor suppressor gene (p53), matrix metalloproteinase gene (MMP-9), vascular endothelial growth factor gene (VEGF), and beta-catenin protein gene (β-catenin), in HepG-2 and Caco-2 cells, before and after treatment for 2 days with IC50 concentrations for compounds 4, 6, and 8. Following the extraction of total RNA from the tested cells, using the Gene JET RNA Purification Kit (Thermo Scientific, USA), cDNA synthesis was performed according to the cDNA Synthesis Kit protocol (Thermo Scientific, USA). qRT PCR was performed using the SYBR green kit and specific primers (Forward/Reverse) as follows: 5′-[…]-3'/5'-TCG GTCTCCTAAAAGCAGGC-3′ for the Bcl-2 gene, 5′-TAACAGTTCCTGCATG GG CG GC-3′/5′-[…]-3′ for p53, 5'-CTGCGTATTTCCATT CATC-3'/5'-CCTTGGGTCAGGTTTAGAG-3' for the MMP-9 gene, 5'-GGCTTTACT GCTGTACCTCC-3'/5'-CAAATGCTTTCTCCGCTCT-3' for the VEGF gene, and 5'-CATATGCGGCTGCTG TTCTA-3'/5'-CCGAAAG CCGTTTCTTGTAG-3' for the β-catenin gene. The upregulation and/or downregulation of the expression of the tested genes in Caco-2 and HepG-2 cells was determined by using the equation 2^−ΔΔCT[60].

The test system of another data set is MMP-9 gene. In words: qRT-PCR gene expression in HepG-2 and Caco-2 cells. In kind it is cell-based, human. The settings on record: IC50 concentrations, 2 days, compared to 5-FU and untreated cells. The procedure:
as §5
(Real-time PCR tracks product formation cycle by cycle.)

The subject of a further data set is β-catenin gene. As to the kind of experiment: qRT-PCR gene expression in HepG-2 and Caco-2 cells. The settings on record: IC50 concentrations, 2 days. In kind it is cell-based, human. The procedure: as §5
Another data set concerns Bcl-2 gene. In words: qRT-PCR gene expression in HepG-2 and Caco-2 cells. It counts as cell-based, human. The procedure:
as §5

Setting [6] is: ratio of IC50 of normal cells (HFB-4) versus IC50 of tumor cells.

The term IC50 denotes the concentration at which inhibition is half-maximal. Read a high IC50 as lower potency. What is called MIC is the lowest concentration found to suppress growth. With `N#Cc1c(N)oc2nc(N3NC4=C(CCCC4)C3c3ccccc3)sc12` (centres unmarked) [Compound 4, 5-amino-2-(3-phenyl-1,3,4,5,6,7-hexahydro-2H-indazol-2-yl)furo[2,3-d] thiazole-6-carbonitrile], the “antibiofilm formation activity Streptococcus mutans (in words)” value with Streptococcus mutans is reported as “had antibiofilm formation activities”. Also, the “biofilm inhibition activity Pseudomonas aeruginosa (in words)” value with Pseudomonas aeruginosa is listed as “high biofilm inhibition activity”. The IC50 with HepG-2 cells (Homo sapiens, HepG2, 48 h, MTT, 48 h) came to 7.88 ± 0.1 µg/mL (≈ 21.7 µM); in the data set on Caco-2 cells [1] (Homo sapiens, Caco-2, 48 h, MTT, 48 h) it was 6.18 ± 1.14 µg/mL (≈ 17 µM); with HFB-4 cells it was 142 ± 1.48 µg/mL (≈ 392 µM). The “SI HepG-2” value with HepG-2 cells (setting [6]) was 18.1 and 18.06 ± 0.19. Besides, the “SI Caco-2” value with Caco-2 cells [1] (setting [6]) is 23 and 23.03 ± 0.24. Moreover, the results for the MIC in data set [2], in data set [3] and in [4] were 48.9 ± 1.05 µg/mL (≈ 135 µM), 60.8 ± 2.22 µg/mL (≈ 167 µM) and 34.41 ± 0.237 µg/mL (≈ 94.7 µM), respectively. In the data set on Caco-2 cells [5], the “apoptotic phase (sub-G1) population” value is given as “becomes detectable after treatment”. The “synthesis (S) phase population” value with Caco-2 cells [5] is reported as “decreased”. Moreover, in the data set on VEGF gene, the “gene expression of VEGF” value is on record as “significantly downregulated”. In addition, the “gene expression of MMP-9” value in the data set with MMP-9 gene is reported as “significantly downregulated”. Also, the “expression of the β-catenin gene” value in the data set with β-catenin gene is given as “significantly suppressed”. In addition, the “gene expression of Bcl-2” value with Bcl-2 gene (HepG-2 and Caco-2 cells, IC50 concentrations, 2 days, compared to 5-FU and untreated cells) is given as “significantly downregulated”. Moreover, in the data set with Bcl-2 gene (compared to control cells), the “downregulation of Bcl-2 expression, fold” value is “more than threefold”.
